These results are taken from US5783689A, “Antibacterial and antifungal nucleosides” (University of Notre Dame, priority 1996, dated 1998).

Holding throughout (format): cell-based
In experiment [1] the test system is Staphylococcus epidermis 222. Description: MIC by agar dilution method. As to conditions: read-out: Minimum Inhibitory Concentration. From the text:
(§1) The following Table 3 lists the minimum inhibitory concentrations obtained by the agar dilution method against Gram-positive and Gram-negative organisms with 5'-O-(valinyl)-5-fluorouridine and comparators ampicillin and 5-FC.
In general terms: In agar dilution the substance is mixed into plates at graded concentrations.

Experiment [2] relates to Staphylococcus aureus X 400. Kind of experiment: MIC by agar dilution method.
Text: as §1

For a further experiment, the system named is Enterobacter cloacae EB5. Description: MIC by agar dilution method. As to conditions: read-out: Minimum Inhibitory Concentration.
Text: as §1

The test system of a further experiment is Pseudomonas PS19. Kind of experiment: MIC by agar dilution method.
Text: as §1

For a further experiment, the system named is Salmonella X514. Kind of experiment: MIC by agar dilution method. As to conditions: read-out: Minimum Inhibitory Concentration.
Text: as §1

In another experiment the test system is Enterococcus D X66. Kind of experiment: MIC by agar dilution method.
Text: as §1

The next experiment concerns Morganella morganii PR15. Kind of experiment: MIC by agar dilution method. As to conditions: read-out: Minimum Inhibitory Concentration.
Text: as §1

Another experiment has as its system Shigella sonnei N9. Kind of experiment: MIC by agar dilution method. As to conditions: N9, read-out: Minimum Inhibitory Concentration.
Text: as §1

For a further experiment, the system named is Serratia X99. Kind of experiment: MIC by agar dilution method. As to conditions: read-out: Minimum Inhibitory Concentration.
Text: as §1

Another experiment concerns Salmonella 1335. Description: MIC by agar dilution method. As to conditions: read-out: Minimum Inhibitory Concentration.
Text: as §1

The next experiment deals with Streptococcus pn PARK. Kind of experiment: MIC by agar dilution method. As to conditions: read-out: Minimum Inhibitory Concentration.
Text: as §1

The test system of experiment [3] is Staphylococcus aureus V 41. Kind of experiment: MIC by agar dilution method. As to conditions: V41, read-out: Minimum Inhibitory Concentration.
Text: as §1

Experiment [4] relates to Enterobacter aerogenes EB17. Kind of experiment: MIC by agar dilution method. The following applies: Klebsiella aerogenes, read-out: Minimum Inhibitory Concentration.
Text: as §1

The subject of the next experiment is E. Coli TEM. Description: MIC by agar dilution method. The following applies: Escherichia coli, read-out: Minimum Inhibitory Concentration.
Text: as §1

The test system of experiment [5] is Staphylococcus epidermis 70. Kind of experiment: MIC by agar dilution method. The following applies: read-out: Minimum Inhibitory Concentration.
Text: as §1

The next experiment has as its system Proteus rett. C24. Description: MIC by agar dilution method. The following applies: read-out: Minimum Inhibitory Concentration.
Text: as §1

The subject of a further experiment is Enterococcus D 2041. Description: MIC by agar dilution method. As to conditions: D2041, read-out: Minimum Inhibitory Concentration.
Text: as §1

A further experiment has as its system E. Coli EC14. Description: MIC by agar dilution method. As to conditions: Escherichia coli, read-out: Minimum Inhibitory Concentration.
Text: as §1

In the next experiment the test system is Klebsiella X26. Kind of experiment: MIC by agar dilution method. As to conditions: read-out: Minimum Inhibitory Concentration.
Text: as §1

In experiment [6] the test system is Enterobacter aerogenes C32. Kind of experiment: MIC by agar dilution method. As to conditions: Klebsiella aerogenes, read-out: Minimum Inhibitory Concentration.
Text: as §1

The test system of experiment [7] is Staphylococcus aureus X 1.1. Kind of experiment: MIC by agar dilution method. As to conditions: X1.1, read-out: Minimum Inhibitory Concentration.
Text: as §1

The test system of the next experiment is Serratia SE3. Description: MIC by agar dilution method. The following applies: read-out: Minimum Inhibitory Concentration.
Text: as §1

In experiment [8] the test system is Staphylococcus aureus S13E. Description: MIC by agar dilution method. The following applies: read-out: Minimum Inhibitory Concentration.
Text: as §1

The test system of the next experiment is Proteus stu PR33. Description: MIC by agar dilution method. The following applies: read-out: Minimum Inhibitory Concentration.
Text: as §1

The next experiment concerns Streptococcus A C203. Description: MIC by agar dilution method. Further details: key: NG: no growth.
Text: as §1

For experiment [9], the system named is Gram-positive bacteria including the methicillin resistant staphylococci. Kind of experiment: in vitro growth inhibition of Gram-positive bacteria including methicillin resistant staphylococci.
Text: as §1

The subject of experiment [10] is Gram-negative microorganisms. Description: activity against Gram-negative microorganisms. The following applies: compared with Gram-positive bacteria.
Text: as §1

Another experiment has as its system Candida albicans. Description: in vitro test against Candida albicans, zone of inhibition, Lee's medium. The following applies: 37° C. From the text:
The test compound of Table 3,5'-O-(valinyl)-5-fluorouridine, was coupled to the triornithyl peptide represented by the formula 2 wherein p is 3 by following the reaction Scheme 1 above and substituting valine for glycine to provide the tetrapeptide of the invention. […] Lee, K. L.; Buckley, H. R.; Campbell, C. C., Saubouraudia, 1975, 13, 148. The tetrapeptide gave a 35 mm diameter zone of inhibition at a concentration of the compound of 25 nmol. while at a concentration of 5 nmol. the zone of inhibition was 26 mm.

Setting [11] is: X400, Staphylococcus aureus X 400, agar dilution, read-out: Minimum Inhibitory Concentration.
[12] abbreviates: Pseudomonas PS19, agar dilution, read-out: Minimum Inhibitory Concentration.
Where [13] appears, read: DX66, Enterococcus D X66, agar dilution, read-out: Minimum Inhibitory Concentration.

Converted amounts (≈) assume the structure as drawn. Where two headings read alike, the source gives them in different places. Where a SMILES comes first, the peptide text is derived from it. [ ]: non-standard residue; d: D form. The star is where a group is joined. X1 = O=c1[nH]c(=O)n([C@@H]2O[C@H](CO*)[C@@H](O)[C@H]2O)cc1F; Orn(N5-OH,N5-Ac) = CC(=O)N(O)CCC[C@H](N)C(=O)O

As to `CC(C)[C@H](N)C(=O)OC[C@H]1O[C@@H](n2cc(F)c(=O)[nH]c2=O)[C@H](O)[C@@H]1O` [Test Compd, 5'-O-(L-valinyl)-5-fluorouridine], the MIC was determined as 1 µg/mL (≈ 2.77 µM) in [1]; 0.25 µg/mL (≈ 0.692 µM) in experiment [2] (setting [11]); 32 µg/mL (≈ 88.6 µM) with Enterobacter cloacae EB5; 128 µg/mL (≈ 354 µM) in the experiment with Pseudomonas PS19 (setting [12]); 32 µg/mL (≈ 88.6 µM) in the experiment with Salmonella X514; 32 µg/mL (≈ 88.6 µM) in the experiment with Enterococcus D X66 (setting [13]). In addition, the MIC with Morganella morganii PR15 amounted to 8 µg/mL (≈ 22.1 µM); in the experiment on Shigella sonnei N9, 64 µg/mL (≈ 177 µM); in the experiment on Serratia X99 it was 16 µg/mL (≈ 44.3 µM); in the experiment on Salmonella 1335 it was 32 µg/mL (≈ 88.6 µM); with Streptococcus pn PARK, 128 µg/mL (≈ 354 µM); in [3], 0.25 µg/mL (≈ 0.692 µM). In addition, the MIC in [4] stood at 64 µg/mL (≈ 177 µM); in the experiment with E. Coli TEM, 16 µg/mL (≈ 44.3 µM); in [5] it was 0.03 µg/mL (≈ 0.083 µM); in the experiment on Proteus rett. C24 it was 16 µg/mL (≈ 44.3 µM); in the experiment on Enterococcus D 2041, 2 µg/mL (≈ 5.54 µM); with E. Coli EC14 (E. Coli EC14, agar dilution) it was 128 µg/mL (≈ 354 µM). For the same compound, the MIC with Klebsiella X26 turned out to be 32 µg/mL (≈ 88.6 µM); in experiment [6], 64 µg/mL (≈ 177 µM); in [7], 0.5 µg/mL (≈ 1.38 µM); in the experiment with Serratia SE3, 16 µg/mL (≈ 44.3 µM); in experiment [8], 0.125 µg/mL (≈ 0.346 µM); in the experiment on Proteus stu PR33, 32 µg/mL (≈ 88.6 µM). Besides, in the experiment with Streptococcus A C203, the “Minimum Inhibitory Concentration” value is “NG”. Further, the entries for the “growth inhibition of Gram-positive bacteria / methicillin-resistant staphylococcus (in words)” value in experiment [9] and in [9] (listed as 5'-O-(valinyl)-5-fluorouridine) were “inhibited the in vitro growth of Gram-positive bacteria including the methicillin resistant staphylococci” and “inhibits the growth of methicillin-resistant staphylococcus”, respectively. Further, the “activity against Gram-negative microorganisms (in words)” value in [10] is listed as “also active against Gram-negative microorganisms but to a lesser degree”.

On to `CC(=O)N(O)CCC[C@H](NC(=O)[C@H](CCCN(O)C(C)=O)NC(=O)[C@@H](N)CCCN(O)C(C)=O)C(=O)N[C@H](C(=O)OC[C@H]1O[C@@H](n2cc(F)c(=O)[nH]c2=O)[C@H](O)[C@@H]1O)C(C)C` [tetrapeptide] (H-[Orn(N5-OH,N5-Ac)][Orn(N5-OH,N5-Ac)][Orn(N5-OH,N5-Ac)]V-X1), for which the “diameter zone of inhibition” value came out at 26 mm in the experiment with Candida albicans (5 nmol) and 35 mm in the experiment on Candida albicans (25 nmol). Also, in the experiment on Candida albicans (in vitro), the “activity against Candida albicans (in words)” value is on record as “exhibited activity against Candida albicans”.

For the compound `Nc1nc(=O)n([C@@H]2O[C@H](CO)[C@@H](O)[C@H]2O)cc1F` [Example 5-FC, 5-fluorocytidine], the MIC is 16 µg/mL (≈ 61.3 µM) in [1]; 8 µg/mL (≈ 30.6 µM) in experiment [2] (setting [11]); over 128 µg/mL in the experiment on Pseudomonas PS19 (Pseudomonas, PS19, read-out: Minimum Inhibitory Concentration); 0.25 µg/mL (≈ 0.957 µM) in the experiment on Enterococcus D X66 (setting [13]); 8 µg/mL (≈ 30.6 µM) in [3]; 16 µg/mL (≈ 61.3 µM) in [5]. Also, the MIC in the experiment with Enterococcus D 2041 was 4 µg/mL (≈ 15.3 µM); in the experiment with E. Coli EC14 it was over 128 µg/mL; in experiment [7] it was 8 µg/mL (≈ 30.6 µM); in experiment [8], 2 µg/mL (≈ 7.66 µM).

Take `CC1(C)S[C@@H]2[C@H](NC(=O)[C@H](N)c3ccccc3)C(=O)N2[C@H]1C(=O)O` [Ampicillin]: the MIC in experiment [1] amounted to 2 µg/mL (≈ 5.72 µM); in experiment [2] (Staphylococcus aureus, X400, read-out: Minimum Inhibitory Concentration), 128 µg/mL (≈ 366 µM); in the experiment on Enterobacter cloacae EB5 it was 0.25 µg/mL (≈ 0.715 µM); in the experiment on Pseudomonas PS19 (setting [12]), 32 µg/mL (≈ 91.6 µM); with Salmonella X514, 0.06 µg/mL (≈ 0.172 µM); in the experiment with Enterococcus D X66 (Enterococcus, DX66, read-out: Minimum Inhibitory Concentration), 128 µg/mL (≈ 366 µM). In addition, the MIC in the experiment with Morganella morganii PR15 came out at 1 µg/mL (≈ 2.86 µM); in the experiment with Shigella sonnei N9, 0.6 µg/mL (≈ 1.72 µM); in the experiment on Serratia X99 it was 0.25 µg/mL (≈ 0.715 µM); in the experiment on Salmonella 1335, 0.125 µg/mL (≈ 0.358 µM); in [3], 4 µg/mL (≈ 11.4 µM); in [4], 0.06 µg/mL (≈ 0.172 µM). For the same compound, the MIC in the experiment with E. Coli TEM worked out at 0.03 µg/mL (≈ 0.0859 µM); in experiment [5], 8 µg/mL (≈ 22.9 µM); with Proteus rett. C24, 0.06 µg/mL (≈ 0.172 µM); in the experiment with Enterococcus D 2041, 1 µg/mL (≈ 2.86 µM); in the experiment with E. Coli EC14 (E. Coli EC14, agar dilution), 0.06 µg/mL (≈ 0.172 µM); in the experiment with Klebsiella X26, 0.008 µg/mL (≈ 0.0229 µM). In addition, the MIC in experiment [6] came to 0.5 µg/mL (≈ 1.43 µM); in experiment [7], 2 µg/mL (≈ 5.72 µM); in the experiment on Serratia SE3, 0.5 µg/mL (≈ 1.43 µM); in [8], 128 µg/mL (≈ 366 µM); with Proteus stu PR33 it was 0.06 µg/mL (≈ 0.172 µM).
